Experiment [1] concerns the target T1, Acetylcholine receptor; alpha1/beta1/delta/gamma (Homo sapiens, UniProt P02708+P07510+P11230+Q07001). Nature of the experiment: Change in membrane potential in TE-671 cells expressing acetylcholine neuromuscular receptors. The experiment is classed as functional, cell-based.
The target in experiment [2] is T1, Acetylcholine receptor; alpha1/beta1/delta/gamma. Kind of experiment: Percentage efficacy in TE671 cells expressing acetylcholine neuromuscular receptor as change in membrane potential. The class given is functional, cell-based. As to conditions: TE-671.
Experiment [3] deals with Neuronal acetylcholine receptor; alpha4/beta2 (Rattus norvegicus) (UniProt P09483+P12390). Kind of experiment: Binding affinity (Ki) for rat brain nicotinic receptors […] alpha-4 and beta2 subunits versus 0.5 nM [3H](1)-epibatidine.
Experiment [4] addresses T2, Neuronal acetylcholine receptor; alpha3/beta4 (Rattus norvegicus) (UniProt P04757+P12392). Nature of the experiment: Percentage efficacy in KXalpha-3-beta-4R2 cells expressing rat nicotinic acetylcholine receptor alpha-3 beta4 subunits relative to (1)-epibatidine. The experiment is classed as functional, cell-based.
Experiment [5] concerns the target T2, Neuronal acetylcholine receptor; alpha3/beta4 (Rattus norvegicus). Kind of experiment: Binding affinity (Ki) for rat nicotinic acetylcholine receptor alpha3-beta4 subunits versus 0.5 nM [3H](1)-epibatidine. The class given is protein-complex assay.
In experiment [6] the target is T3, Neuronal acetylcholine receptor; alpha4/beta2 (Homo sapiens, UniProt P17787+P43681). Kind of experiment: Change in membrane potential in K-177 cells expressing acetylcholine central neuronal receptor alpha4-beta2 subunits. The class given is functional, cell-based.
T3 sequence (P17787 whole entry): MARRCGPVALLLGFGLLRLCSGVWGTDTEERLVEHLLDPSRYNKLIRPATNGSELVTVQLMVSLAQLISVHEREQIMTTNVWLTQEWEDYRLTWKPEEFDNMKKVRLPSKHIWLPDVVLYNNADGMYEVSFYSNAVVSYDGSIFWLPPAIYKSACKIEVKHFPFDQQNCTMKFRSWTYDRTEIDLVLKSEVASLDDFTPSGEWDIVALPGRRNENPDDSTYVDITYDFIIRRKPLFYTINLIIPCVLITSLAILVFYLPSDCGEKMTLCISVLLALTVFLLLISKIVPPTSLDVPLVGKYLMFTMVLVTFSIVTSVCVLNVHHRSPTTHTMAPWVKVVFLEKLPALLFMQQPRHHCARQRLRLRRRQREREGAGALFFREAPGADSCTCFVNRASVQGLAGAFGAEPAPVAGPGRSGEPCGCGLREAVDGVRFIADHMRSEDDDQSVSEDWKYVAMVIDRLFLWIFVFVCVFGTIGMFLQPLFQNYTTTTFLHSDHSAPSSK
T3 sequence (P43681 whole entry): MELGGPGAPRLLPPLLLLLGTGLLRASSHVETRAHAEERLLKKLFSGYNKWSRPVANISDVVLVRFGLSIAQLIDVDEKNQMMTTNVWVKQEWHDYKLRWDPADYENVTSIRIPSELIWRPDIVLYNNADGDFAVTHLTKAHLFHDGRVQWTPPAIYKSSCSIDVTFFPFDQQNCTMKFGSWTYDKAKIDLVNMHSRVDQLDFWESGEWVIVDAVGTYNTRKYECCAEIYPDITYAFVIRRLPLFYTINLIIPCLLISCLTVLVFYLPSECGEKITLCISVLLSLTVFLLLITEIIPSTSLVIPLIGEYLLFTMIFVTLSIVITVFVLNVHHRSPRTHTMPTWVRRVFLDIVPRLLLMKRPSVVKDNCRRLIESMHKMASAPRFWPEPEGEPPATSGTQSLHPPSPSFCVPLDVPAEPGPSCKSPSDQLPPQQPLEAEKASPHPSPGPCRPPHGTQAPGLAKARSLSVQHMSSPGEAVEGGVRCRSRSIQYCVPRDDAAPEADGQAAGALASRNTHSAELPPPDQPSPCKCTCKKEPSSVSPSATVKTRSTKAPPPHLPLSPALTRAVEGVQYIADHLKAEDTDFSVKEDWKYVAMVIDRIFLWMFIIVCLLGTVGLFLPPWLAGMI
Experiment [7] concerns the target T3, Neuronal acetylcholine receptor; alpha4/beta2. Kind of experiment: Percentage efficacy in K-177 cells expressing acetylcholine central neuronal receptor type alpha-4 beta2 subunits as change in membrane potential. The class given is functional, cell-based.
The target of experiment [8] is Neuronal acetylcholine receptor; alpha3/beta4 (Rattus norvegicus, UniProt P04757+P12392). Nature of the experiment: Effective concentration in KXalpha-3-beta-4R2 cells expressing rat nicotinic acetylcholine receptor alpha3-beta4 subunits. The experiment is classed as functional, cell-based.
Chain of Neuronal acetylcholine receptor; alpha3/beta4 (P04757 whole entry): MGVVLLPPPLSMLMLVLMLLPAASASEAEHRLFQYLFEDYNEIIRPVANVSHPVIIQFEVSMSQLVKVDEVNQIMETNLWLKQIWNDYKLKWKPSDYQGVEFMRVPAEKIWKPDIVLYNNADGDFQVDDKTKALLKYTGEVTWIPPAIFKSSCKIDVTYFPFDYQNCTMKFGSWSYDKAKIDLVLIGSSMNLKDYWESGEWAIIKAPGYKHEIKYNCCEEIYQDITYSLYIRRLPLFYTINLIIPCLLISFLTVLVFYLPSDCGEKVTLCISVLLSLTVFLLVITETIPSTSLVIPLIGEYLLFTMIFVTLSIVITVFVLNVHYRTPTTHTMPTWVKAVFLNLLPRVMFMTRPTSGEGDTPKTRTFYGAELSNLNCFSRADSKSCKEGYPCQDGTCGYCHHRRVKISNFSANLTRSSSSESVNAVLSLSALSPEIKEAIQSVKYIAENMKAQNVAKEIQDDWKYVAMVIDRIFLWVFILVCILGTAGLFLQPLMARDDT
Chain of Neuronal acetylcholine receptor; alpha3/beta4 (P12392 whole entry): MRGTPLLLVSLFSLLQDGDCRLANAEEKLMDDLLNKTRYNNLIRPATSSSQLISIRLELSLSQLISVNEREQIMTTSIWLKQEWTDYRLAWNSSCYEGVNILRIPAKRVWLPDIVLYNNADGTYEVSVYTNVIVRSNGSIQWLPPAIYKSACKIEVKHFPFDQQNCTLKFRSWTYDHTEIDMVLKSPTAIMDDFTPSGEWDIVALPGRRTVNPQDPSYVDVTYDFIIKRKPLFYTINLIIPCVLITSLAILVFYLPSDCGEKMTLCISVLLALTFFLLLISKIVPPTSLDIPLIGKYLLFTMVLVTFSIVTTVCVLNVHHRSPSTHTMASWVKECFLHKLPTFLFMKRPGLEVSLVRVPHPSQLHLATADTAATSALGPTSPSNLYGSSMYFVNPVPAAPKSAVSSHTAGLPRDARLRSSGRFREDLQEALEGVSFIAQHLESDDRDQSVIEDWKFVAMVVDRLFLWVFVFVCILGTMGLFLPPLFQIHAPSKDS

T1 sequence (P02708 whole entry): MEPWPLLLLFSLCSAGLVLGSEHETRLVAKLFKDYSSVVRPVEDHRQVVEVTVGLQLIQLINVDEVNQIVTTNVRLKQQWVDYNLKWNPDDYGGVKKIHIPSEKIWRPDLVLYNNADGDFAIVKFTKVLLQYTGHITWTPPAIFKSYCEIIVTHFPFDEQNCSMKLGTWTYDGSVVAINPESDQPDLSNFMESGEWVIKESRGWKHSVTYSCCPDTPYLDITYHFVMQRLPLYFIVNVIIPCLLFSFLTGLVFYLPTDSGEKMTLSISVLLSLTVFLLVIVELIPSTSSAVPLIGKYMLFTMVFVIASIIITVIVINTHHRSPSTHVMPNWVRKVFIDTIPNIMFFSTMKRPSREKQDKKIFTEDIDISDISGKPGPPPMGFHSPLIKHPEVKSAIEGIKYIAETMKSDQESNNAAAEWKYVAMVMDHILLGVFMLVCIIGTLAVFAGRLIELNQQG
T1 sequence (P07510 whole entry): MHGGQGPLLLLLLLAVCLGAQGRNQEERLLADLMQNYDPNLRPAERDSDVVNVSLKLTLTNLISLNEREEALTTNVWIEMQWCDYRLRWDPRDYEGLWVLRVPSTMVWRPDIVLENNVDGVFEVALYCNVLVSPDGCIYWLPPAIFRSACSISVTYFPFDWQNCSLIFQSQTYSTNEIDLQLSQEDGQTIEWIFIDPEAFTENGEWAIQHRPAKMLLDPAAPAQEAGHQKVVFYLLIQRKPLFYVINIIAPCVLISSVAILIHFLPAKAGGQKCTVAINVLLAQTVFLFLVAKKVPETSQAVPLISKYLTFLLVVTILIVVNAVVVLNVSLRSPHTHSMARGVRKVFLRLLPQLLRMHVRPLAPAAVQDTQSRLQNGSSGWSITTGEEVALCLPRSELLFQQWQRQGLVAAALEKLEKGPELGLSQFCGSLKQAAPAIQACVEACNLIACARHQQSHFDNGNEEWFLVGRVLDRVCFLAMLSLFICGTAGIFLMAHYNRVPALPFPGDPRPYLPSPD
T1 sequence (P11230 whole entry): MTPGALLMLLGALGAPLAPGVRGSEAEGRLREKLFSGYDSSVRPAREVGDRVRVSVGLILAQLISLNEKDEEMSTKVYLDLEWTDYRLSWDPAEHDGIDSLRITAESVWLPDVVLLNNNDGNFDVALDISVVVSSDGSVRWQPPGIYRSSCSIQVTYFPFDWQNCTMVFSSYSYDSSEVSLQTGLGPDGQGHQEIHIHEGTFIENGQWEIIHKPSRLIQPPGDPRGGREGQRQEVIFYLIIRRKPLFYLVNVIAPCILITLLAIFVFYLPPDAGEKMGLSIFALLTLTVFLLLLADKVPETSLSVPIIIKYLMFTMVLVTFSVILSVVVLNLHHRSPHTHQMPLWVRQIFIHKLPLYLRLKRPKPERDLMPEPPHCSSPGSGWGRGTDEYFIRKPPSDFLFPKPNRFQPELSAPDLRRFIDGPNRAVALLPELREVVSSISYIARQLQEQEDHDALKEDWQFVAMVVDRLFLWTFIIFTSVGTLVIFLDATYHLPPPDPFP
T1 sequence (Q07001 whole entry): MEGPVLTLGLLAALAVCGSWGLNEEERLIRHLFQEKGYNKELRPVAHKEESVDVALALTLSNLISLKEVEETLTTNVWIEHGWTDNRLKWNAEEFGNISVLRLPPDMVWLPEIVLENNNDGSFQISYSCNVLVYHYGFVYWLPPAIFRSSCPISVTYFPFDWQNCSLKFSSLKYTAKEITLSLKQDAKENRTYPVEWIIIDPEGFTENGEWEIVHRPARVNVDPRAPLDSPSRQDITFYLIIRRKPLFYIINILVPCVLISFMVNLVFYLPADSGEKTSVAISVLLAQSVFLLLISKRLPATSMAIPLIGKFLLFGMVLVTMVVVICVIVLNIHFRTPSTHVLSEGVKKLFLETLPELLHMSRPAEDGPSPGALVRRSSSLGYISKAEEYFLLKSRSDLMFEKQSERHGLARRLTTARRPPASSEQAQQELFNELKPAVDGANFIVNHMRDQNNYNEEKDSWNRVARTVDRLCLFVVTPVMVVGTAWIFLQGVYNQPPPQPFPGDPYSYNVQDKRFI

Take `O=c1c(Br)cc(Br)c2n1CC1CNCC2C1` (configuration not stated): the half-maximal effective concentration (EC50) in experiment [1], in experiment [6] and in experiment [8] was > 100 nM in each case. Further, the Efficacy was < 10% in experiment [2], < 10% in experiment [4] and 23% in experiment [7]. Also, the Affinity in experiment [3] came out at 10.8 nM; in experiment [5], 45000 nM.

As for `O=c1ccc(Br)c2n1CC1CNCC2C1` (configuration not stated), the EC50 in experiment [1] was > 100 nM; in experiment [6] it was 1.1 nM; in experiment [8], 39 nM. For the same compound, the figures for the Efficacy in experiment [2] and in experiment [7] were < 10% and 70%, respectively. Moreover, the Affinity was determined as 0.308 nM in experiment [3] and 380 nM in experiment [5].

Regarding `O=c1c(Cl)cc(Cl)c2n1CC1CNCC2C1` (configuration not stated), the EC50 in experiment [1], in experiment [6] and in experiment [8] was > 100 nM in each case. Besides, the Efficacy in experiment [2] is 23%; in experiment [4], < 10%; in experiment [7], 20%. The Affinity in experiment [3] was 2.5 nM; in experiment [5], 39000 nM.

Take `S=c1cccc2n1CC1CNCC2C1` (configuration not stated): the EC50 in experiment [1] is > 100 nM; in experiment [6], 2.2 nM; in experiment [8], > 100 nM. For the same compound, the figures for the Efficacy in experiment [2], in experiment [4] and in experiment [7] were < 10%, 10% and 28%, respectively. Besides, the figures for the Affinity in experiment [3] and in experiment [5] were 0.832 nM and 27000 nM, respectively.

Consider `O=c1c(Cl)ccc2n1CC1CNCC2C1` (configuration not stated), for which the EC50 in experiment [1] came out at 28 nM; in experiment [6] it was 0.11 nM; in experiment [8], 5.1 nM. For the same compound, the Efficacy in experiment [2] is 53%; in experiment [4], 71%; in experiment [7], 72%. Moreover, the Affinity in experiment [3] was found to be 0.022 nM; in experiment [5], 18 nM.

Turning to `O=c1c(I)ccc2n1CC1CNCC2C1` (configuration not stated), the concentration giving a half-maximal response (EC50) came to 45 nM in experiment [1], 0.036 nM in experiment [6] and 0.55 nM in experiment [8]. The Efficacy was determined as 46% in experiment [2], 78% in experiment [4] and 92% in experiment [7]. The Affinity in experiment [3] is 0.017 nM; in experiment [5], 7.4 nM.

For `Clc1ccc(C2CC3CCC2N3)cn1` (configuration not stated) [EPIBATIDINE], in experiment [1], the EC50 turned out to be 0.053 nM. Further, the Efficacy in experiment [2] and in experiment [7] was 100% each time. For the same compound, the Affinity in experiment [3] came to 0.0072 nM; in experiment [5], 0.51 nM.

As to `O=c1c(I)cc(I)c2n1CC1CNCC2C1` (configuration not stated), the concentration giving a half-maximal response (EC50) is > 100 nM in experiment [1], 42 nM in experiment [6] and > 100000 nM in experiment [8]. Further, the results for the Efficacy in experiment [2], in experiment [4] and in experiment [7] were < 10%, < 10% and 42%, respectively. In addition, the Affinity in experiment [3] worked out at 0.52 nM; in experiment [5], 4200 nM.

As for `O=c1ccc(Cl)c2n1CC1CNCC2C1` (configuration not stated), the results for the EC50 in experiment [1], in experiment [6] and in experiment [8] were > 100 nM, 4 nM and > 100 nM, respectively. Further, the Efficacy is < 10% in experiment [2], < 10% in experiment [4] and 58% in experiment [7]. Further, the Affinity worked out at 2.5 nM in experiment [3] and 3900 nM in experiment [5].

For `O=c1c(Br)ccc2n1CC1CNCC2C1` (configuration not stated), the 50% effective concentration (EC50) was determined as 31 nM in experiment [1], 0.05 nM in experiment [6] and 0.88 nM in experiment [8]. Besides, the Efficacy in experiment [2] amounted to 59%; in experiment [4], 74%; in experiment [7] it was 85%. In addition, the Affinity in experiment [3] stood at 0.01 nM; in experiment [5], 7.5 nM.

As for `C[N+]1(C)CC2CC(C1)c1cccc(=O)n1C2` (configuration not stated), the EC50 in experiment [1] is 37 nM; in experiment [6] it was 41 nM; in experiment [8], > 100 nM. The Efficacy was determined as 60% in experiment [2], 29% in experiment [4] and 70% in experiment [7]. The results for the Affinity in experiment [3] and in experiment [5] were 0.238 nM and 1500 nM, respectively.

Turning to `O=c1cccc2n1C[C@@H]1CNC[C@H]2C1` [CYTISINICLINE], the EC50 in experiment [1] turned out to be 11 nM; in experiment [6], 0.42 nM; in experiment [8] it was 25 nM. For the same compound, the Efficacy stood at 55% in experiment [2], 62% in experiment [4] and 59% in experiment [7]. For the same compound, the Affinity in experiment [3] was determined as 0.124 nM; in experiment [5] it was 220 nM.

The EC50 is the concentration needed to bring the measured effect to its halfway point. A lower EC50 goes with an effect from little substance.
